# Entries after “also recorded” stand apart in the source; their conditions may differ.
# How the values were obtained:
# OVCAR-5 = assay: Tumor cell viability (TABLE 1); type: cell-based; details: Homo sapiens, read-out: EC50 (50% reduction in cell viability); OVCAR-5 (Ovarian); serum-free conditions, 48 hour treatment; mean ± SEM
# SF-295 = assay: Tumor cell viability (TABLE 1); type: cell-based; details: Homo sapiens, read-out: EC50 (50% reduction in cell viability); SF-295 (CNS); serum-free conditions, 48 hour treatment; mean ± SEM
# PC3 = assay: Tumor cell viability (TABLE 1); type: cell-based; details: Homo sapiens, PC-3, read-out: EC50 (50% reduction in cell viability); PC3 (Prostate); serum-free conditions, 48 hour treatment; mean ± SEM
# H146 = H146 small cell lung cancer murine model; type: in vivo
# Description: (H146 and SCLC xenograft) from human-derived small cell lung cancer isolated from smokers and nonsmokers, defective for Rb/p53 gene function, and expresseive of moderately high levels of Bcl-2.
# [1] = tested on: acute lymphoblastoid leukemia, small cell lung cancer, prostate cancer, non-small cell lung cancer, and follicular lymphoma tumors (RS11380, DoHH2 and SuDHL-4); details: follicular lymphoma (RS11380, DoHH2, SuDHL-4)
# SF-539 = assay: Tumor cell viability (TABLE 1); type: cell-based; details: Homo sapiens, read-out: EC50 (50% reduction in cell viability); SF-539 (CNS); serum-free conditions, 48 hour treatment; mean ± SEM
# DU-145 = assay: Tumor cell viability (TABLE 1); type: cell-based; details: Homo sapiens, read-out: EC50 (50% reduction in cell viability); DU-145 (Prostate); serum-free conditions, 48 hour treatment; mean ± SEM
# CCRF-CEM = CCRF-CEM systemic model of acute lymphoblastoid leukemia; type: in vivo, mouse
# Description: CCRF-CEM is a p53-mutant acute lympoblastoid leukemia line of T-cell origin used as an animal (mouse) model of systemic leukemia involving intravenous inoculation of tumor cells. If left untreated, the mice succumb to disease within about 34 days post inoculation, at which time extensive tumor infiltration of spleen, liver, and bone marrow has occured.
# NCI-H460 = assay: Tumor cell viability (TABLE 1); type: cell-based; details: Homo sapiens, read-out: EC50 (50% reduction in cell viability); NCI-H460 (Non-Small Cell Lung); serum-free conditions, 48 hour treatment; mean ± SEM
# RXF-393 = assay: Tumor cell viability (TABLE 1); type: cell-based; details: Homo sapiens, read-out: EC50 (50% reduction in cell viability); RXF-393 (Renal); serum-free conditions, 48 hour treatment; mean ± SEM
# LOX IMVI = assay: Tumor cell viability (TABLE 1); type: cell-based; details: Homo sapiens, read-out: EC50 (50% reduction in cell viability); LOX IMVI (Melanoma); serum-free conditions, 48 hour treatment; mean ± SEM
# HS-578T = assay: Tumor cell viability (TABLE 1); type: cell-based; details: Homo sapiens, read-out: EC50 (50% reduction in cell viability); HS-578T (Breast); serum-free conditions, 48 hour treatment; mean ± SEM
# SuDHL4 = SuDHL4 model of B-cell follicular lymphoma; type: in vivo
# MDA-MB-435 = assay: Tumor cell viability (TABLE 1); type: cell-based; details: Homo sapiens, MDA-MB-435, 48 h, read-out: EC50 (50% reduction in cell viability)
# DLD-1 = assay: Tumor cell viability (TABLE 1); type: cell-based; details: Homo sapiens, read-out: EC50 (50% reduction in cell viability); DLD-1 (Colorectal); serum-free conditions, 48 hour treatment; mean ± SEM
# OVCAR-4 = assay: Tumor cell viability (TABLE 1); type: cell-based; details: Homo sapiens, read-out: EC50 (50% reduction in cell viability); OVCAR-4 (Ovarian); serum-free conditions, 48 hour treatment; mean ± SEM
# SW-620 = assay: Tumor cell viability (TABLE 1); type: cell-based; details: Homo sapiens, read-out: EC50 (50% reduction in cell viability); SW-620 (Colorectal); serum-free conditions, 48 hour treatment; mean ± SEM
# D54MG = assay: Tumor cell viability (TABLE 1); type: cell-based; details: Homo sapiens, read-out: EC50 (50% reduction in cell viability); D54MG (Glioma); serum-free conditions, 48 hour treatment; mean ± SEM
# NCI-H322M = assay: Tumor cell viability (TABLE 1); type: cell-based; details: Homo sapiens, read-out: EC50 (50% reduction in cell viability); NCI-H322M (Non-Small Cell Lung); serum-free conditions, 48 hour treatment; mean ± SEM
# SK-MEL-5 = assay: Tumor cell viability (TABLE 1); type: cell-based; details: Homo sapiens, read-out: EC50 (50% reduction in cell viability); SK-MEL-5 (Melanoma); serum-free conditions, 48 hour treatment; mean ± SEM
# U251 = assay: Tumor cell viability (TABLE 1); type: cell-based; details: Homo sapiens, U-251, read-out: EC50 (50% reduction in cell viability); U251 (CNS); serum-free conditions, 48 hour treatment; mean ± SEM
# OVCAR-3 = assay: Tumor cell viability (TABLE 1); type: cell-based; details: Homo sapiens, read-out: EC50 (50% reduction in cell viability); OVCAR-3 (Ovarian); serum-free conditions, 48 hour treatment; mean ± SEM
# SK-MEL-28 = assay: Tumor cell viability (TABLE 1); type: cell-based; details: Homo sapiens, read-out: EC50 (50% reduction in cell viability); SK-MEL-28 (Melanoma); serum-free conditions, 48 hour treatment; mean ± SEM
# HT-29 = assay: Tumor cell viability (TABLE 1); type: cell-based; details: Homo sapiens, read-out: EC50 (50% reduction in cell viability); HT-29 (Colorectal); serum-free conditions, 48 hour treatment; mean ± SEM
smiles,measurement,setting,value
"CN(C)CC[C@H](CSc1ccccc1)Nc1ccc(S(=O)(=O)NC(=O)c2ccc(N3CCN(Cc4ccccc4-c4ccc(Cl)cc4)CC3)cc2)cc1[N+](=O)[O-] [EXAMPLE 2, N-(4-(4-((4′-chloro(1,1′-biphenyl)-2-yl)methyl)piperazin-1-yl)benzoyl)-4-(((1R)-3-(dimethylamino)-1-((phenylsulfanyl)methyl)propyl)amino)-3-nitrobenzenesulfonamide]",EC50,OVCAR-5,1100 nM
same,EC50,SF-295,7700 ± 2300 nM
same,EC50,PC3,960 ± 380 nM
same,tumor regression,"H146; H146 model, in some cases tumor disappearance after prolonged therapy",complete regression of an established tumor
same,anti-tumor activity,"H146; H146 murine model, human-derived small cell lung cancer",demonstrated anti-tumor activity
same,therapeutic utility in xenograft models,[1],displayed therapeutic utility
same,EC50,SF-539,4100 ± 600 nM
same,EC50,DU-145,8200 ± 1100 nM
same,activity in leukemia model,CCRF-CEM; CCRF-CEM T-cell acute lymphoblastoid leukemia model,significant activity
same,survival,"CCRF-CEM; mice, intravenous inoculation of tumor cells",prolonged survival; also recorded: increased the average survival
same,tumor infiltration in liver and spleen (histopathology),CCRF-CEM; relative to controls,lower tumor infiltration
same,average spleen weight,CCRF-CEM; relative to vehicle controls,significant decrease in average spleen weight
same,EC50,NCI-H460,2300 ± 1500 nM
same,EC50,RXF-393,2900 ± 400 nM
same,EC50,LOX IMVI,1700 ± 400 nM
same,EC50,HS-578T,7200 ± 8200 nM
same,activity in follicular lymphoma model,SuDHL4,significant activity
same,EC50,MDA-MB-435,2400 nM
same,EC50,DLD-1,990 ± 450 nM
same,EC50,OVCAR-4,22000 ± 3000 nM
same,EC50,SW-620,690 ± 70 nM
same,EC50,D54MG,3100 ± 2500 nM
same,EC50,NCI-H322M,4100 ± 800 nM
same,EC50,SK-MEL-5,3700 ± 800 nM
same,EC50,U251,3800 ± 2000 nM
same,EC50,OVCAR-3,1900 ± 300 nM
same,EC50,SK-MEL-28,9300 ± 100 nM
same,EC50,HT-29,1100 ± 1100 nM
